Experiments:
[1] = system: mung bean; assay: Pot experiment under drought treatment, terrein seed soaking or spraying, mung bean; assay type: in vivo
Protocol: (§1) An embodiment of effects of 2 μg/mL terrein formulation on the growth of four crops by seed soaking treatment under drought conditions is as follows. Terrein (purity 95%) is prepared as a solution with a concentration of 2 μg/mL in distilled water, and pakchoi, mung bean, sorghum, and wheat seeds are soaked in it for 6 hours, and the seeds are also soaked in distilled water as a blank control. Subsequently, the soaked crop seeds are sown into potted plants, and each of the treatment group is replicated five times. When the seedlings grew to about 10 cm, the drought treatment culture is carried out. The room temperature is 25° C., the humidity is 70%, 12 hours of light and 12 hours of darkness each day, and the light intensity is 80-100 μmol·m^−2·s^−1. During the period, the soil was kept in a dry state, and 200 mL is watered every week for 30 days, with a total of 800 mL. The drought culture conditions described below are all treated in the same way. After 30 days, the root length, seedling height, and fresh weight of pakchoi, mung bean, sorghum, and wheat are measured, and 10 seedlings are selected from each of the treatment groups, with a total of 50 plants (N=50), hereafter, they are dried in an oven and then measured dry weight. The growth rates of root length, seedling height, fresh weight, and dry weight of pakchoi, mung bean, sorghum, and wheat under 2 μg/mL compared to the blank control are first calculated, that is, An embodiment of effects of 10 μg/mL terrein formulation on the growth of four crops by seed soaking treatment under drought conditions is as follows. Terrein is prepared as a solution with a concentration of 10 μg/mL in distilled water, and pakchoi, mung bean, sorghum, and wheat seeds are soaked in it for 6 hours, and the seeds are also soaked in distilled water as a blank control. Subsequently, the soaked crop seeds are sown into potted plants. When the seedlings grew to about 10 cm, the drought treatment culture is carried out. After 30 days, the root length, seedling height, and fresh weight of pakchoi, mung bean, sorghum, and wheat are measured, hereafter, they are dried in an oven and then measured dry weight. An embodiment of effects of 2 μg/mL terrein formulation on the growth of four crops by spraying treatment under drought conditions is as follows. Seeds of four tested plants are soaked in distilled water and then sowing. Terrein is prepared as a solution with a concentration of 2 μg/mL in distilled water. When the potted pakchoi, mung bean, sorghum, and wheat grow to about 10 cm (15-20 days after sowing), spray them once, with an amount of about 3 mL, and distilled water sprayed used as blank control. Subsequently, the drought treatment culture is carried out. The room temperature is 25° C., the humidity is 70%, 12 hours of light and 12 hours of darkness each day, and the light intensity is 80-100 μmol·m^−2·s^−1. During the period, the soil was kept in a dry state, and 200 mL is watered every week for 30 days, with a total of 800 mL. After 30 days, the root length, seedling height, and fresh weight of pakchoi, mung bean, sorghum, and wheat are measured, hereafter, they are dried in an oven and then measured dry weight. An embodiment of effects of 10 μg/mL terrein formulation on the growth of four crops by spraying treatment under drought conditions is as follows. Seeds of four tested plants are soaked in distilled water and then sowing. Terrein is prepared as a solution with a concentration of 10 μg/mL in distilled water. When the potted pakchoi, mung bean, sorghum, and wheat grow to about 10 cm (15-20 days after sowing), spray them once, with an amount of about 3 mL, and distilled water sprayed used as blank control. Subsequently, the drought treatment is carried out. After 30 days, the root length, seedling height, and fresh weight of pakchoi, mung bean, sorghum, and wheat are measured, hereafter, they are dried in an oven and then measured dry weight. […]

[2] = Solubility in water; assay type: physicochemical
[3] = system: wheat; assay: Pot experiment under drought treatment, terrein seed soaking or spraying, wheat; assay type: in vivo
Protocol: as §1

[4] = system: sorghum; assay: Pot experiment under drought treatment, terrein seed soaking or spraying, sorghum; assay type: in vivo
Protocol: as §1

[5] = 2 μg/mL terrein seed soaking treatment, drought, 30 days
[6] = 2 μg/mL terrein seed soaking, drought, 30 days
[7] = 2 μg/mL terrein seed soaking, drought, 30 days, p<0.05
[8] = 2 μg/mL terrein spraying at seedling stage
[9] = 2 μg/mL terrein spraying treatment, drought, 30 days
[10] = 2 μg/mL terrein spraying, drought, 30 days
[11] = 10 μg/mL terrein seed soaking treatment, drought, 30 days
[12] = 10 μg/mL terrein seed soaking, drought
[13] = 10 μg/mL terrein seed soaking, drought, 30 days
[14] = 10 μg/mL terrein spraying treatment, drought, 30 days
[15] = 10 μg/mL terrein spraying, drought
[16] = 10 μg/mL terrein spraying, drought, 30 days

For `C/C=C/C1=CC(=O)[C@H](O)[C@H]1O` [terrein], the effect on growth ([1]; 2 μg/mL terrein seed soaking) was “significantly promote”, the dry weight [1, 5] was 0.15 g and the fresh weight [1, 5] was 0.98 g. For the same compound, the root length [1, 5] was 14.19 cm, the seedling height [1, 5] was 22.54 cm and the “growth rate of dry weight compared with the blank control” value [1, 6] was 28.07%. The “growth rate of root length compared with the blank control” value [1, 6] was 44.72%, the “effect on fresh weight compared with the blank control” value [1, 7] was “not significant” and the “effect on seedling height compared with the blank control” value [1, 7] was “not significant”. For the same compound, the effect on growth [1, 8] was “significant promoting effect”, the dry weight [1, 9] was 0.14 g and the fresh weight [1, 9] was 0.92 g. The root length [1, 9] was 15.88 cm, the seedling height [1, 9] was 23.99 cm and the “growth rate of root length compared with the blank control” value [1, 10] was 61.95%. The dry weight [1, 11] was 0.16 g, the fresh weight [1, 11] was 0.87 g and the root length [1, 11] was 12.84 cm. For the same compound, the seedling height [1, 11] was 24.21 cm, the effect on growth [1, 12] was “significant promoting effect” and the “growth rate of dry weight compared with the blank control” value [1, 13] was 35.65%. The “growth rate of root length compared with the blank control” value [1, 13] was 30.92%, the dry weight [1, 14] was 0.15 g and the fresh weight [1, 14] was 1.16 g. The root length [1, 14] was 15.42 cm, the seedling height [1, 14] was 22.08 cm and the effect on growth [1, 15] was “significant promoting effects”. For the same compound, the “growth rate (promotion rate) of dry weight compared with the blank control” value [1, 16] was 26.98%, the “growth rate (promotion rate) of fresh weight compared with the blank control” value [1, 16] was 56.18% and the “growth rate (promotion rate) of root length compared with the blank control” value [1, 16] was 57.20%. For the same compound, the solubility in water [2] was “easily soluble in water”, the effect on growth ([3]; 2 μg/mL terrein seed soaking) was “significantly promote” and the dry weight [3, 5] was 0.26 g. It also gave a fresh weight [3, 5] of 1.10 g, a root length [3, 5] of 16.13 cm and a seedling height [3, 5] of 21.55 cm. For the same compound, the “promotion rate of dry weight compared with the blank control” value [3, 6] was 21.99%, the “promotion rate of fresh weight compared with the blank control” value [3, 6] was 52.30% and the effect on growth [3, 8] was “significant promoting effect”. It also gave a dry weight [3, 9] of 0.25 g, a fresh weight [3, 9] of 1.16 g and a root length [3, 9] of 17.02 cm. For the same compound, the seedling height [3, 9] was 18.93 cm, the “growth rate of dry weight compared with the blank control” value [3, 10] was 16.29% and the “growth rate of fresh weight compared with the blank control” value [3, 10] was 60.98%. For the same compound, the dry weight [3, 11] was 0.26 g, the fresh weight [3, 11] was 1.27 g and the root length [3, 11] was 18.96 cm. For the same compound, the seedling height [3, 11] was 20.25 cm, the effect on growth [3, 12] was “significant promoting effect” and the “growth rate of dry weight compared with the blank control” value [3, 13] was 22.35%. For the same compound, the “growth rate of fresh weight compared with the blank control” value [3, 13] was 76.39%, the “growth rate of root length compared with the blank control” value [3, 13] was 25.09% and the dry weight [3, 14] was 0.29 g. It also gave a fresh weight [3, 14] of 1.42 g, a root length [3, 14] of 25.37 cm and a seedling height [3, 14] of 20.49 cm. The effect on growth [3, 15] was “significant promoting effects”, the “growth rate (promotion rate) of dry weight compared with the blank control” value [3, 16] was 34.79% and the “growth rate (promotion rate) of fresh weight compared with the blank control” value [3, 16] was 97.21%. For the same compound, the “growth rate (promotion rate) of root length compared with the blank control” value [3, 16] was 67.40%, the dry weight [4, 5] was 0.37 g and the fresh weight [4, 5] was 1.71 g. For the same compound, the root length [4, 5] was 35.67 cm, the seedling height [4, 5] was 40.43 cm and the effect on growth [4, 6] was “no significant effect”. The effect on growth [4, 8] was “significant promoting effect”, the dry weight [4, 9] was 0.40 g and the fresh weight [4, 9] was 1.92 g. For the same compound, the root length [4, 9] was 38.15 cm, the seedling height [4, 9] was 39.14 cm and the “growth rate of dry weight compared with the blank control” value [4, 10] was 20.80%. The “growth rate of fresh weight compared with the blank control” value [4, 10] was 18.92%, the “growth rate of root length compared with the blank control” value [4, 10] was 18.49% and the dry weight [4, 11] was 0.38 g. The fresh weight [4, 11] was 1.88 g, the root length [4, 11] was 33.99 cm and the seedling height [4, 11] was 39.69 cm. The effect on growth [4, 12] was “significant promoting effect”, the “growth rate of dry weight compared with the blank control” value [4, 13] was 15.42% and the dry weight [4, 14] was 0.42 g. For the same compound, the fresh weight [4, 14] was 1.93 g, the root length [4, 14] was 42.01 cm and the seedling height [4, 14] was 38.16 cm. The effect on growth [4, 15] was “significant promoting effects”, the “growth rate (promotion rate) of dry weight compared with the blank control” value [4, 16] was 25.19% and the “growth rate (promotion rate) of fresh weight compared with the blank control” value [4, 16] was 19.90%. For the same compound, the “growth rate (promotion rate) of root length compared with the blank control” value [4, 16] was 30.50%.

Reference: patent publication US12232493B2, “Biopesticide formulation and treatment method thereof” (Xinjiang Institute of Ecology and Geography, Chinese …, priority 2023, dated 2025)
